# Source: patent US10098372B2, “Whitening composition and the use thereof” (INFINITUS (CHINA) COMPANY LTD, priority 2015, dated 2018)
# Experiments:
# [1] = system: melanoma cells from B16 mice; assay: Effect on melanin content (melanin synthesis) in melanoma cells from B16 mice; assay type: cell-based; settings: Mus musculus, 72 h, 3 days, n = 4, read-out: The inhibitory rate for melanin synthesis
# Experimental: The experiments were: melanoma cells from B16 mice (purchased from Shanghai Fuxiang Biotechnology Co., Ltd.) were adjusted with DMEM cell culture medium containing 10% fetal bovine serum, 100 U/mL penicillin and 100 U/mL streptomycin to reach a density of 1×10^5/mL, and were seeded into 6-well cell culture plates (3 mL per well). After cultured at 37° C., 5% CO2 for 24 h, the test sample (Example 2) was added. After 3 days, the supernatant was discarded, and the cells were washed with PBS, then added with trypsin to degest the cells for 3 min (0.5 mL per well). Afterwards, 2 mL cell culture medium was added to terminate the digestion reaction, and cells of each group were counted. After centrifugation, the supernatant was discarded, and 0.5 mL of 1 mol/L NaOH solution was added. After vibrated for 1 h, a 1500 r/min centrifugation was conducted for 5 min. 200 μL was respectively taken and transferred to a 96-well cell culture plate, and tested for absorbance at 450 nm via a microplate reader to calculate the inhibitory rate for melanin synthesis. In the experiment, the control wells were added with the same volume amount of PBS as that of the sample. […]
# A is the absorbance of the wells containing drug (i.e., sample wells or positive control wells), B is the number of cells in the wells containing drug, C the absorbance of the control wells, D is the number of cells in control wells.
# [2] = biological target: T1, intracellular tyrosinase in melanoma cells from B16 mice (Mus musculus, UniProt P11344); assay: Effect on intracellular tyrosinase activity in melanoma cells from B16 mice; assay type: cell-based; settings: 3 days, n = 4, read-out: Inhibitory rate for tyrosinase activity
# T1 construct: B16 melanin cells were adjusted with DMEM cell culture medium; endogenous in cells; host or cells: B16 mouse melanoma cells
# T1 sequence (P11344 19-533): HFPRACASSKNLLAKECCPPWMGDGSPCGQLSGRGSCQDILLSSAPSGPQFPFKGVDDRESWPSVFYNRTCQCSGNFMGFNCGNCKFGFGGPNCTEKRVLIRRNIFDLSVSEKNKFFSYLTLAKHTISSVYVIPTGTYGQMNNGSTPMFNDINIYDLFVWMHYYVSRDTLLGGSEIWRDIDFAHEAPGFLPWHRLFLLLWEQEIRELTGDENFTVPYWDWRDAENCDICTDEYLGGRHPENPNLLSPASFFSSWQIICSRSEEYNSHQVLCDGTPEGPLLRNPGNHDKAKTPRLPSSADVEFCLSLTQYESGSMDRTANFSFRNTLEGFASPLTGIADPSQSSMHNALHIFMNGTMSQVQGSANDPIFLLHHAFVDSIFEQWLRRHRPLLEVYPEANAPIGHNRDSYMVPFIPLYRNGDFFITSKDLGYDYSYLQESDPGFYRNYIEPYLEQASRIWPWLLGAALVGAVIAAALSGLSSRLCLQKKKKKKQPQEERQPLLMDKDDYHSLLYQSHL
# Experimental: The experiments were: B16 melanin cells were adjusted with DMEM cell culture medium containing 10% fetal bovine serum, 100 U/mL penicillin and 100 U/mL streptomycin to reach a density of 1×10^5/mL, and were seeded into 6-well cell culture plates (3 mL per well). After cultured at 37° C., 5% CO2 for 24 h, the test sample (Example 2) was added. After 3 days, the supernatant was discarded, and the cells were washed with PBS for twice. After each well was added 180 μL PBS solution containing 1% (v/v) Triton X-100, the cells were subjected to ultrasonication under ice bath, then each well was added 20 μL 10 mmol/L of L-DOPA, incubated at 37° C. for 60 min. A 1500 r/min centrifugation was conducted for 5 min. 100 μL was respectively taken and transferred to a 96-well cell culture plate, and tested for absorbance at 492 nm via a microplate reader to calculate the inhibitory rate for intracellular tyrosinase activity. The control wells were added with the same volume amount of PBS as that of the sample. The positive control employs arbutin, at an effect concentration of 200 μM. Inhibition rate=(1−A/B)×100%
# wherein A is the mean absorbance of the wells containing drug (i.e., sample wells or positive control wells), B is the mean absorbance of the control wells.
compound,measurement,setting,value
OC[C@H]1O[C@@H](Oc2ccc(O)cc2)[C@H](O)[C@@H](O)[C@@H]1O [Arbutin],inhibition at 200 µM,[1],46.7 ± 10%
same,inhibition at 400 µM,[2],49 ± 9.44%
